According to ChEMBL document CHEMBL1201861, “Genomics of Drug Sensitity in Cancer screening data, Wellcome Trust Sanger Institute”:

Tests used:
Assay in all cases: cells
[1] = test system: PA-1; format: functional, cell-based, Homo sapiens; conditions: Homo sapiens, PA-1;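 also: IC50 for suppression of PA-1 cell proliferation, determined with a cell viability read-out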
Description: SANGER: Inhibition of human PA-1 cell growth in a cell viability assay.

[2] = test system: LoVo; format: functional, cell-based; conditions: Homo sapiens;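 also: growth inhibition of human LoVo cells, read out with a cell viability assay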
Description: SANGER: Inhibition of human LoVo cell growth in a cell viability assay.

[3] = test system: NCI-H526; format: functional, cell-based; conditions: Homo sapiens;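 also: growth inhibition of the human NCI-H526 cell line, measured by a cell viability assay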
Description: SANGER: Inhibition of human NCI-H526 cell growth in a cell viability assay.

[4] = test system: CHP-212; format: functional, cell-based, Homo sapiens; conditions: Homo sapiens, CHP-212
Description: SANGER: Inhibition of human CHP-212 cell growth in a cell viability assay.

[5] = test system: IST-MEL1; format: functional, cell-based, Homo sapiens; conditions: Homo sapiens, IST-MEL1;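 also: growth inhibition of the cell line, read out with a cell viability assay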
Description: SANGER: Inhibition of human IST-MEL1 cell growth in a cell viability assay.

[6] = test system: SCC-15; format: functional, cell-based, Homo sapiens; conditions: Homo sapiens, SCC-15;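 also: growth inhibition of SCC-15 cells, read out with a cell viability assay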
Description: SANGER: Inhibition of human SCC-15 cell growth in a cell viability assay.

[7] = test system: MKN-1; format: functional, cell-based, Homo sapiens; conditions: Homo sapiens, MKN-1;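 also: growth inhibition of human MKN1 cells, read out by a cell viability measurement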
Description: SANGER: Inhibition of human MKN1 cell growth in a cell viability assay.

[8] = test system: NCI-H446; format: functional, cell-based; conditions: Homo sapiens;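 also: growth inhibition of NCI-H446 cells determined by a cell viability assay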
Description: SANGER: Inhibition of human NCI-H446 cell growth in a cell viability assay.

[9] = test system: CaR-1; format: functional, cell-based, Homo sapiens; conditions: Homo sapiens, CaR-1;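 also: growth inhibition of human CaR-1 cancer cells, read out with a cell viability assay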
Description: SANGER: Inhibition of human CaR-1 cell growth in a cell viability assay.

[10] = test system: SW1088; format: functional, cell-based, Homo sapiens; conditions: Homo sapiens, SW1088;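 also: growth inhibition of human SW1088 cells, read out by a cell viability assay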
Description: SANGER: Inhibition of human SW1088 cell growth in a cell viability assay.

[11] = test system: MFH-ino; format: functional, cell-based; conditions: Homo sapiens;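 also: growth inhibition of human MFH-ino cells, read out by a cell viability assay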
Description: SANGER: Inhibition of human MFH-ino cell growth in a cell viability assay.

[12] = test system: PFSK-1; format: functional, cell-based, Homo sapiens; conditions: Homo sapiens, PFSK-1;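 also: cell viability assay measuring how strongly compounds suppress growth of human PFSK-1 cells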
Description: SANGER: Inhibition of human PFSK-1 cell growth in a cell viability assay.

[13] = test system: LS-1034; format: functional, cell-based, Homo sapiens; conditions: Homo sapiens, LS-1034
Description: SANGER: Inhibition of human LS-1034 cell growth in a cell viability assay.

[14] = test system: L-428; format: functional, cell-based; conditions: Homo sapiens
Description: SANGER: Inhibition of human L-428 cell growth in a cell viability assay.

[15] = test system: SiHa; format: functional, cell-based, Homo sapiens; conditions: Homo sapiens, SiHa;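 also: Viability-based readout of growth inhibition in SiHa cells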
Description: SANGER: Inhibition of human SiHa cell growth in a cell viability assay.

[16] = test system: MN-60; format: functional, cell-based; conditions: Homo sapiens;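 also: growth inhibition of the MN-60 cell line, determined with a cell viability assay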
Description: SANGER: Inhibition of human MN-60 cell growth in a cell viability assay.

[17] = test system: GCIY; format: functional, cell-based, Homo sapiens; conditions: Homo sapiens, GCIY;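 also: growth inhibition of the human GCIY cell line, read out by a cell viability assay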
Description: SANGER: Inhibition of human GCIY cell growth in a cell viability assay.

[18] = test system: CAL-120; format: functional, cell-based, Homo sapiens; conditions: Homo sapiens, CAL-120;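 also: cell growth inhibition, read out as cell viability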
Description: SANGER: Inhibition of human CAL-120 cell growth in a cell viability assay.

[19] = test system: BT-474; format: functional, cell-based, Homo sapiens; conditions: Homo sapiens, BT-474
Description: SANGER: Inhibition of human BT-474 cell growth in a cell viability assay.

[20] = test system: RT-112; format: functional, cell-based, Homo sapiens; conditions: Homo sapiens, RT-112
Description: SANGER: Inhibition of human RT-112 cell growth in a cell viability assay.

[21] = test system: BB49-HNC; format: functional, cell-based, Homo sapiens; conditions: Homo sapiens, BB49-HNC;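 also: cell viability assay read-out, reported as inhibition of BB49-HNC cell growth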
Description: SANGER: Inhibition of human BB49-HNC cell growth in a cell viability assay.

[22] = test system: SK-N-DZ; format: functional, cell-based, Homo sapiens; conditions: Homo sapiens, SK-N-DZ;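 also: growth inhibition of the cancer cell line, read out through a viability assay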
Description: SANGER: Inhibition of human SK-N-DZ cell growth in a cell viability assay.

[23] = test system: LCLC-97TM1; format: functional, cell-based, Homo sapiens; conditions: Homo sapiens, LCLC-97TM1;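 also: cell viability assay measuring growth inhibition of human LCLC-97TM1 cells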
Description: SANGER: Inhibition of human LCLC-97TM1 cell growth in a cell viability assay.

[24] = test system: RERF-LC-MS; format: functional, cell-based, Homo sapiens; conditions: Homo sapiens, RERF-LC-MS;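 also: growth inhibition of human RERF-LC-MS cells, read out by a cell viability assay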
Description: SANGER: Inhibition of human RERF-LC-MS cell growth in a cell viability assay.

[25] = test system: MKN-7; format: functional, cell-based, Homo sapiens; conditions: Homo sapiens, MKN-7;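 also: growth inhibition of MKN-7 cells, read out with a cell viability assay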
Description: SANGER: Inhibition of human MKN7 cell growth in a cell viability assay.

[26] = test system: KYSE-70 cell line; format: functional, cell-based, Homo sapiens; conditions: Homo sapiens, KYSE-70;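 also: cell viability assay read-out, with IC50 expressing suppression of KYSE-70 cell growth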
Description: SANGER: Inhibition of human KYSE-70 cell growth in a cell viability assay.

[27] = test system: LB2518-MEL; format: functional, cell-based, Homo sapiens; conditions: Homo sapiens, LB2518-MEL;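 also: growth inhibition of human LB2518-MEL cells, measured with a cell viability assay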
Description: SANGER: Inhibition of human LB2518-MEL cell growth in a cell viability assay.

[28] = test system: LU-134-A; format: functional, cell-based; conditions: Homo sapiens
Description: SANGER: Inhibition of human LU-134-A cell growth in a cell viability assay.

[29] = test system: TCC-SUP; format: functional, cell-based, Homo sapiens; conditions: Homo sapiens, TCC-SUP;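 also: growth inhibition of TCC-SUP cells, read out with a cell viability assay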
Description: SANGER: Inhibition of human TCCSUP cell growth in a cell viability assay.

[30] = test system: U-266; format: functional, cell-based; conditions: Homo sapiens
Description: SANGER: Inhibition of human U-266 cell growth in a cell viability assay.

[31] = test system: NCI-H1838; format: functional, cell-based, Homo sapiens; conditions: Homo sapiens, NCI-H1838;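 also: growth inhibition of NCI-H1838 cells, determined with a cell viability readout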
Description: SANGER: Inhibition of human NCI-H1838 cell growth in a cell viability assay.

[32] = test system: J82; format: functional, cell-based; conditions: Homo sapiens;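 also: growth inhibition of J82 cells, read out with a cell viability assay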
Description: SANGER: Inhibition of human J82 cell growth in a cell viability assay.

[33] = test system: BB65-RCC; format: functional, cell-based, Homo sapiens; conditions: Homo sapiens, BB65-RCC;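 also: growth inhibition of the cell line, measured with a cell viability assay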
Description: SANGER: Inhibition of human BB65-RCC cell growth in a cell viability assay.

[34] = test system: DB; format: functional, cell-based; conditions: Homo sapiens
Description: SANGER: Inhibition of human DB cell growth in a cell viability assay.

[35] = test system: BCPAP; format: functional, cell-based, Homo sapiens; conditions: Homo sapiens, BCPAP;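 also: growth inhibition of BCPAP cells, read out in a cell viability assay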
Description: SANGER: Inhibition of human BCPAP cell growth in a cell viability assay.

[36] = test system: A498; format: functional, cell-based, Homo sapiens; conditions: Homo sapiens, A498;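 also: growth inhibition of human A498 cells, read out with a cell viability assay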
Description: SANGER: Inhibition of human A498 cell growth in a cell viability assay.

[37] = test system: MDA-MB-175-VII; format: functional, cell-based, Homo sapiens; conditions: Homo sapiens, MDA-MB-175-VII
[38] = test system: U-118-MG; format: functional, cell-based, Homo sapiens; conditions: Homo sapiens, U-118-MG
Description: SANGER: Inhibition of human U-118-MG cell growth in a cell viability assay.

[39] = test system: NB10; format: functional, cell-based, Homo sapiens; conditions: Homo sapiens, NB10;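 also: growth inhibition of NB10 cells, read out by a cell viability assay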
Description: SANGER: Inhibition of human NB10 cell growth in a cell viability assay.

[40] = test system: A-427; format: functional, cell-based, Homo sapiens; conditions: Homo sapiens, A-427;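 also: growth inhibition of human A-427 cells, read out by a cell viability assay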
Description: SANGER: Inhibition of human A427 cell growth in a cell viability assay.

[41] = test system: AN3-CA; format: functional, cell-based; conditions: Homo sapiens;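 also: growth inhibition of human AN3-CA cells measured by a cell viability assay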
Description: SANGER: Inhibition of human AN3-CA cell growth in a cell viability assay.

[42] = test system: SW948; format: functional, cell-based, Homo sapiens; conditions: Homo sapiens, SW948;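 also: growth inhibition of SW948 cells, read out with a cell viability assay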
Description: SANGER: Inhibition of human SW948 cell growth in a cell viability assay.

[43] = test system: Lu-65; format: functional, cell-based; conditions: Homo sapiens;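 also: growth inhibition of Lu-65 cancer cells, read out by a cell viability assay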
Description: SANGER: Inhibition of human LU-65 cell growth in a cell viability assay.

[44] = test system: KINGS-1; format: functional, cell-based, Homo sapiens; conditions: Homo sapiens, KINGS-1;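 also: cell viability assay measuring suppression of KINGS-1 cell growth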
Description: SANGER: Inhibition of human KINGS-1 cell growth in a cell viability assay.

[45] = test system: 786-0; format: functional, cell-based, Homo sapiens; conditions: Homo sapiens
Description: SANGER: Inhibition of human 786-0 cell growth in a cell viability assay.

[46] = test system: UO-31; format: functional, cell-based; conditions: Homo sapiens;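 also: cell viability assay measuring inhibition of cell growth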
Description: SANGER: Inhibition of human U031 cell growth in a cell viability assay.

[47] = test system: KYSE-410; format: functional, cell-based, Homo sapiens; conditions: Homo sapiens, KYSE-410;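 also: growth inhibition of KYSE-410 cells, measured through a cell viability readout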
Description: SANGER: Inhibition of human KYSE-410 cell growth in a cell viability assay.

[48] = test system: C3A; format: functional, cell-based, Homo sapiens; conditions: Homo sapiens, C3A;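 also: growth inhibition of C3A human cells, quantified with a cell viability readout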
Description: SANGER: Inhibition of human C3A cell growth in a cell viability assay.

[49] = test system: BPH-1; format: functional, cell-based, Homo sapiens; conditions: Homo sapiens, BPH-1;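 also: cell viability assay measuring growth inhibition of human BPH-1 cells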
Description: SANGER: Inhibition of human BPH-1 cell growth in a cell viability assay.

[50] = test system: C32; format: functional, cell-based, Homo sapiens; conditions: Homo sapiens, C32;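 also: cell viability assay, with IC50 reflecting inhibition of C32 cell growth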
Description: SANGER: Inhibition of human C32 cell growth in a cell viability assay.

[51] = test system: MDA-MB-415; format: functional, cell-based; conditions: Homo sapiens
[52] = test system: M14; format: functional, cell-based, Homo sapiens; conditions: Homo sapiens, M14;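 also: growth inhibition of M14 cells, read out with a cell viability assay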
Description: SANGER: Inhibition of human M14 cell growth in a cell viability assay.

CN(c1ncccc1CNc1nc(Nc2ccc3c(c2)CC(=O)N3)ncc1C(F)(F)F)S(C)(=O)=O [PF-00562271]
IC50 [1]: > 2560 nM | IC50 [2]: > 2560 nM | IC50 [3]: > 2560 nM | IC50 [4]: 2100 nM | IC50 [5]: > 2560 nM | IC50 [6]: > 2560 nM | IC50 [7]: > 2560 nM | IC50 [8]: > 2560 nM | IC50 [9]: > 2560 nM | IC50 [10]: > 2560 nM | IC50 [11]: > 2560 nM | IC50 [12]: > 2560 nM | IC50 [13]: > 2560 nM | IC50 [14]: > 2560 nM | IC50 [15]: > 2560 nM | IC50 [16]: > 2560 nM | IC50 [17]: > 2560 nM | IC50 [18]: > 2560 nM | IC50 [19]: > 2560 nM | IC50 [20]: 985 nM | IC50 [21]: > 2560 nM | IC50 [22]: > 2560 nM | IC50 [23]: > 2560 nM | IC50 [24]: > 2560 nM | IC50 [25]: > 2560 nM | IC50 [26]: > 2560 nM | IC50 [27]: > 2560 nM | IC50 [28]: > 2560 nM | IC50 [29]: > 2560 nM | IC50 [30]: > 2560 nM | IC50 [31]: > 2560 nM | IC50 [32]: > 2560 nM | IC50 [33]: > 2560 nM | IC50 [34]: > 2560 nM | IC50 [35]: 1010 nM | IC50 [36]: > 2560 nM | IC50 [37]: > 2560 nM | IC50 [38]: > 2560 nM | IC50 [39]: > 2560 nM | IC50 [40]: > 2560 nM | IC50 [41]: 1220 nM | IC50 [42]: > 2560 nM | IC50 [43]: > 2560 nM | IC50 [44]: > 2560 nM | IC50 [45]: > 2560 nM | IC50 [46]: > 2560 nM | IC50 [47]: > 2560 nM | IC50 [48]: > 2560 nM | IC50 [49]: 1290 nM | IC50 [50]: > 2560 nM | IC50 [51]: > 2560 nM | IC50 [52]: > 2560 nM

Cn1cncc1[C@@](N)(c1ccc(Cl)cc1)c1ccc2c(c1)c(-c1cccc(Cl)c1)cc(=O)n2C [TIPIFARNIB]
IC50 [1]: 1340 nM | IC50 [2]: 241 nM | IC50 [3]: > 16000 nM | IC50 [4]: 1380 nM | IC50 [5]: 2820 nM | IC50 [6]: 10800 nM | IC50 [7]: 1880 nM | IC50 [8]: > 16000 nM | IC50 [9]: > 16000 nM | IC50 [10]: 8570 nM | IC50 [11]: 815 nM | IC50 [12]: > 16000 nM | IC50 [13]: 2460 nM | IC50 [14]: > 16000 nM | IC50 [15]: > 16000 nM | IC50 [16]: > 16000 nM | IC50 [17]: 12500 nM | IC50 [18]: > 16000 nM | IC50 [19]: > 16000 nM | IC50 [20]: 382 nM | IC50 [21]: 5860 nM | IC50 [22]: 4710 nM | IC50 [23]: 2300 nM | IC50 [24]: > 16000 nM | IC50 [25]: > 16000 nM | IC50 [26]: 1410 nM | IC50 [27]: 2100 nM | IC50 [28]: > 16000 nM | IC50 [29]: 5800 nM | IC50 [30]: > 16000 nM | IC50 [31]: > 16000 nM | IC50 [32]: 4180 nM | IC50 [33]: 2640 nM | IC50 [34]: 10700 nM | IC50 [35]: 1320 nM | IC50 [36]: > 16000 nM | IC50 [37]: > 16000 nM | IC50 [38]: > 16000 nM | IC50 [39]: 11700 nM | IC50 [40]: 579 nM | IC50 [41]: 1000 nM | IC50 [42]: > 16000 nM | IC50 [43]: > 16000 nM | IC50 [44]: > 16000 nM | IC50 [45]: 342 nM | IC50 [46]: 10700 nM | IC50 [47]: 3500 nM | IC50 [48]: 4640 nM | IC50 [49]: 2240 nM | IC50 [50]: > 16000 nM | IC50 [51]: 14200 nM | IC50 [52]: > 16000 nM
